In PubChem BioAssay (NCI) one finds TGI and GI50 data, which are given here for 17 compounds.

Molecules are shown by their SMILES. Where “and” joins values, the source holds several entries; their conditions need not be identical. Equal entries are not always repeated.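 Dose response: 5 concentrations. Exposure: 48 h. Format: 96-well plates. Endpoint: linear interpolation; highest concentration if not reached. Here, GI50 denotes the concentration required for 50% inhibition of growth. TGI: concentration producing complete growth inhibition.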 Bounds are passed on as bounds.

Holding throughout (experiment): NCI anticancer screen, dose series, 48 h
Experiment [1] has as its system EKVX NSCLC.
The subject of experiment [2] is IGROV1 ovarian.
In experiment [3] the test system is NCI-H23 lung.
Experiment [4] relates to A498 renal.
For experiment [5], the system named is SF-539 CNS.
Experiment [6] deals with SK-MEL-5 melanoma.
The subject of experiment [7] is CCRF-CEM leukemia.
Experiment [8] has as its system MDA-MB-435.
Experiment [9] relates to NCI/ADR-RES ovarian.

For `O=C1CCC(=O)C12CCc1cccc(O)c12`, the TGI in [1], in experiment [2] and in experiment [3] was greater than 100 µM in each case.
As to `CC1=N/C(=C\c2ccc([N+](=O)[O-])cc2)C(=O)O1`, the TGI in experiment [4], in [1], in [2], in experiment [3], in experiment [5] and in [6] was greater than 100 µM in each case.
Turning to `COc1ccc(/C=C/C(C(=O)O)C(=O)O)cc1`, the TGI is 82.3 µM in experiment [7]; greater than 100 µM in experiment [1]; greater than 100 µM in experiment [2]; greater than 100 µM in experiment [3]; greater than 100 µM in experiment [5]; greater than 100 µM in experiment [6].
For the compound `COc1ccc(Nc2c[nH]c(=O)[nH]c2=O)cc1`, the TGI in experiment [4], in experiment [7], in experiment [1], in [2], in [8] and in [3] was greater than 100 µM in each case. Moreover, the TGI in [9], in experiment [5] and in [6] was greater than 100 µM in each case.
Regarding `CC(C)(C)C(=O)OCC(COC(=O)C(C)(C)C)[N+](=O)[O-]`, the TGI in experiment [7], in [1], in experiment [2], in experiment [3] and in [5] was greater than 100 µM each time.
Take `O=c1c2cccnc2ncn1CCCN1CCOCC1`: the TGI in experiment [7], in experiment [1], in [2], in experiment [3], in [5] and in experiment [6] was greater than 100 µM in each case.
As for `COC(=O)c1cc2c(cc1Cl)SC(N(N(C)C)S(=O)(=O)c1ccc(Cl)cc1)=NS2(=O)=O`, the GI50 was 15.1 µM in [4]; 14.1 µM in experiment [7]; 17 µM in experiment [1]; 22.5 µM in [2]; 16.3 µM in experiment [8]; 19.7 µM in experiment [3]. Moreover, the values for the GI50 in experiment [9], in [5] and in experiment [6] were 15.2 µM, 15.8 µM and 14.6 µM, respectively. The TGI in experiment [4] turned out to be 30.1 µM; in experiment [7] it was 37.1 µM; in [1], 33 µM; in [2], 73.6 µM; in experiment [8] it was 33.3 µM; in experiment [3], 43.5 µM. In addition, the TGI in experiment [9] came out at 39.9 µM; in experiment [5], 31.5 µM; in experiment [6] it was 27.7 µM.
Regarding `CCOC(=O)C1(C(=O)OCC)CC=C(C)CC12C(=O)Nc1ccccc12` (stereo unspecified), the TGI in [4], in experiment [7], in [1], in experiment [2], in experiment [3] and in experiment [5] was greater than 100 µM each time. The TGI in [6] is greater than 100 µM.
As for `CN(C)CCNC(=O)c1cccc2c1nc(-c1ccccn1)c1ccccc12`, the TGI was found to be 27.2 µM in experiment [4]; 51.7 µM in experiment [7]; 65.2 µM in experiment [1]; 66.6 µM in experiment [2]; 30 µM in experiment [3]; 30.4 µM in experiment [5]. For the same compound, the TGI in [6] was 28.7 µM.
Regarding `N#Cc1nc(Nc2ccc([N+](=O)[O-])cc2)sc1N`, the TGI in experiment [4] is greater than 100 µM; in experiment [7], greater than 100 µM; in experiment [1], greater than 100 µM; in experiment [2] it was greater than 100 µM; in experiment [3], 20.5 µM; in experiment [5], 18.7 µM. This compound also came in with a TGI in experiment [6] of 12.7 µM.
For `Cc1ccc([Se][Se]c2ccc(C)cc2)cc1`, the TGI in experiment [4] is greater than 100 µM; in experiment [7], 19.7 µM; in [2] it was greater than 100 µM; in [3] it was greater than 100 µM; in [5], greater than 100 µM; in experiment [6], 39.6 µM.
As to `COC(=O)C(=O)C(C#N)c1ccc(Cl)c(Cl)c1` (stereo unspecified), the TGI in experiment [7], in experiment [1], in experiment [2], in experiment [3], in [5] and in experiment [6] was greater than 100 µM each time.
As for `CC1=C(c2cc(C(=O)Nc3cccc(C(F)(F)F)c3)nc(NC#N)n2)Sc2ccccc2N1`, the TGI in experiment [4], in [7], in experiment [1], in experiment [2], in experiment [3] and in [5] was greater than 100 µM throughout. The TGI in experiment [6] was greater than 100 µM.
In the case of `CCCCCCCCCC(=O)N[C@H]1CCc2cc(OC)c(OC)c(OC)c2-c2ccc(SC)c(=O)cc21`, the TGI is 0.0596 µM in [4]; greater than 100 µM in experiment [7]; 9.55 µM in experiment [1]; 0.0491 µM in experiment [5]; 0.0826 µM in experiment [6].
Turning to `O=C(O/N=C1/CCCC/C1=C\c1ccccc1)c1ccc(Cl)cc1`, the TGI in experiment [7], in experiment [1], in experiment [2], in experiment [3], in experiment [5] and in experiment [6] was greater than 100 µM each time.
On to `O=C1c2ccccc2C2(O)Oc3cccc(O)c3C12O` (stereo unspecified), for which the TGI in experiment [4], in experiment [7], in [1], in experiment [2], in experiment [3] and in experiment [5] was greater than 100 µM throughout. Besides, the TGI in experiment [6] is greater than 100 µM.
As to `CC(C)c1ccc(O)c(=O)cc1`, the TGI is greater than 100 µM in [4]; > 41 µM and 4.89 µM in [7]; greater than 100 µM in [1]; greater than 100 µM in [2]; greater than 74 µM in experiment [3]; 59.3 µM in experiment [9]. Besides, the TGI in experiment [5] was 17 µM; in experiment [6], 35.2 µM and 41.4 µM. Further, the GI50 in [7] is 1.67 µM; in experiment [2] it was 7.48 µM; in [8], 19.6 µM; in [3] it was 17.2 µM; in experiment [9], 3.64 µM; in experiment [5] it was 7.69 µM. Moreover, in experiment [6], the GI50 is 11.1 µM.
